# Experimental data reported in patent publication US7825093B2 (priority 2006, dated 2010).
# “Also recorded” adds a separate entry of the source. Bridge positions count the residues as written; N and C are the ends. Ends that are not written are not given here. Peptide text beside a SMILES is read from it.
# B1: FcLoop-L2-OsK1-L2: OsK1 inserted into the human IgG1 Fc loop with 2-Gly linkers (protein)
# chain: MDKTHTCPPCPAPELLGGPSVFLFPPKPKDTLMISRTPEVTCVVVDVSHEDPEVKFNWYVDGVEVHNAKTKPREEQYNSTYRVVSVLTVLHQDWLNGKEYKCKVSNKALPAPIEKTISKAKGQPREPQVYTLPPSRDELGGGVIINVKCKISRQCLEPCKKAGMRFGKCMNGKCHCTPKGGTKNQVSLTCLVKGFYPSDIAVEWESNGQPENNYKTTPPVLDSDGSFFLYSKLTVDKSRWQQGNVFSCSVMHEALHNHYTQKSLSLSPGK
# modifications: Definition of Artificial Sequence: Synthetic protein
# B2: FcLoop-L2-ShK-L2: ShK inserted into the human IgG1 Fc loop with 2-Gly linkers (protein)
# chain: MDKTHTCPPCPAPELLGGPSVFLFPPKPKDTLMISRTPEVTCVVVDVSHEDPEVKFNWYVDGVEVHNAKTKPREEQYNSTYRVVSVLTVLHQDWLNGKEYKCKVSNKALPAPIEKTISKAKGQPREPQVYTLPPSRDELGGRSCIDTIPKSRCTAFQCKHSMKYRLSFCRKTCGTCGGTKNQVSLTCLVKGFYPSDIAVEWESNGQPENNYKTTPPVLDSDGSFFLYSKLTVDKSRWQQGNVFSCSVMHEALHNHYTQKSLSLSPGK
# modifications: Definition of Artificial Sequence: Synthetic protein
# B3: MGGHHHHHHGGGPSVFLFPPKPKDTLMISRTPEVTCVVVDVSHEDPEVKFNWYVDGVEVHNAKTKPREEQYNSTYRVVSVLTVLHQDWLNGKEYKCKVSNKALPAPIEKTISGGGGSGGGGSGVIINVKCKISRQCLEPCKKAGMRFGKCMNGKCHCTPK (protein)
# chain: MGGHHHHHHGGGPSVFLFPPKPKDTLMISRTPEVTCVVVDVSHEDPEVKFNWYVDGVEVHNAKTKPREEQYNSTYRVVSVLTVLHQDWLNGKEYKCKVSNKALPAPIEKTISGGGGSGGGGSGVIINVKCKISRQCLEPCKKAGMRFGKCMNGKCHCTPK
# Assays:
# [1] = test system: IFN-g production in human whole blood; assay type: cell-based; settings: for IC50: read-out: WB/IFNg (IC50)
# [2] = test system: IL-2 production in human whole blood; settings: for IC50: read-out: WB/IL-2 (IC50)
# human Kv1.3 channel = human Kv1.3 channel (Homo sapiens, UniProt P22001); assay type: cell-based
# [3] = test system: CD40L on T cells in human whole blood; assay type: cell-based
# [4] = test system: IL-2R on T cells in human whole blood; assay type: cell-based
# human Kv1.1 (HEK293) = target: T1, human Kv1.1 (HEK293) (Homo sapiens, UniProt Q09470); assay type: cell-based
# T1 construct: expressed in transfected cells; host or cells: HEK293
# human Kv1.3 (CHO) = target: T2, human Kv1.3 (CHO) (Homo sapiens, UniProt P22001); assay type: cell-based
# T2 construct: expressed in transfected cells; host or cells: CHO
# T2 sequence (P22001 whole entry): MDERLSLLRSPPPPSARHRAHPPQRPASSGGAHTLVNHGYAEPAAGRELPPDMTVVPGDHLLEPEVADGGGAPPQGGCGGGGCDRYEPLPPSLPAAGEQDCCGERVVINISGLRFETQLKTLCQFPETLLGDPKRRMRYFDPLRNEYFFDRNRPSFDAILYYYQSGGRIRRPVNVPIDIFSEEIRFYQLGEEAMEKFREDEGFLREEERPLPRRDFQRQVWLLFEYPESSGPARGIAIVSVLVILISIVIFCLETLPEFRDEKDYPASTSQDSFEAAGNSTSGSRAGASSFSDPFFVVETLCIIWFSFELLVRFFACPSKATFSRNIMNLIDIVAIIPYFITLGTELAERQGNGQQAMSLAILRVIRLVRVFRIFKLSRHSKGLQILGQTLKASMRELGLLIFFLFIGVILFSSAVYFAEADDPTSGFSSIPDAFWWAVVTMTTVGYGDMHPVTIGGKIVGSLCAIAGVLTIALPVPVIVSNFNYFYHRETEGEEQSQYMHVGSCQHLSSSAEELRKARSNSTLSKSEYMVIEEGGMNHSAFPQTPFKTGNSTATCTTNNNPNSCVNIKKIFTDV
# T1 sequence (Q09470 whole entry): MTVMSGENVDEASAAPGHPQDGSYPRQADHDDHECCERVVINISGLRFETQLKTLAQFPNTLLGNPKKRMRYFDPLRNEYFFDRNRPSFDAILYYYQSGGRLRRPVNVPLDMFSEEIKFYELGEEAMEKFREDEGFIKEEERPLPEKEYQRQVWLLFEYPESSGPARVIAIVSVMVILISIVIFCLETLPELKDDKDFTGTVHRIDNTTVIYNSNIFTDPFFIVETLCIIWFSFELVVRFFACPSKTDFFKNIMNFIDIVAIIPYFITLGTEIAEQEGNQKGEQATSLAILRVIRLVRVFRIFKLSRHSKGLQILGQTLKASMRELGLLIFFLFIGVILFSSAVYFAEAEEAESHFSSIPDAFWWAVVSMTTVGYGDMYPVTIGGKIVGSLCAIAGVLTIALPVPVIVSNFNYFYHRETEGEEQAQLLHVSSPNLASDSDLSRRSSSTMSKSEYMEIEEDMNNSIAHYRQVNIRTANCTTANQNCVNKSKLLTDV
# Sequence of human Kv1.3 channel (P22001 whole entry): as the sequence (P22001 whole entry) above
Molecule,IC50 [1] [nM],IC50 [2] [nM],other results
GVIINVKCKISRQCLKPCKDAGMRFGKCMNGKCACTPK [compound 4990],26.6,65.5,
"SEQ ID No: 4989: OSK1 analog without beta strand 1 (labeled des 1-7), Table 42 (CKISRQCLKPCKDAGMRFGKCMNGKCHC-NH2; ends and bridges not checked)",,,"blockade of the whole blood cytokine response (IL-2, IFNg), in words [2]: still retain activity in blocking inflammation"
GVIINVKCKISRQCLKPCKDAGMRFGKCMNGKCHCYPK [compound 298],0.923,0.639,
GGGGSGVIINVKCKISRQCLEPCKKAGMRFGKCMNGKCHCTPK [compound 1395],2.2,1.36,
Fc-L-KTX1: bacterially expressed Fc-linker-KTX1 peptibody,,,block of human Kv1.3 current (in words) (human Kv1.3 channel): concentration dependent block
GVIINVKCKISRQCLKPCKDAGMRFGKCMNGKCHCTPK [compound 296],1.32,1.58,
Fc-L10-ShK[2-35]: human IgG1 Fc fused via 10 amino acid linker to ShK[2-35],,,thapsigargin-induced IFN-g production (in words) [1]: suppressed; also recorded: blocked; stability in whole blood [2]: stable in whole blood at 37 °C for up to 48 hours; thapsigargin-induced upregulation of CD40L on T cells (in words) [3]: blocked; thapsigargin-induced upregulation of the IL-2R on T cells (in words) [4]: blocked
GIINVKCKISAQCLKPCRDAGMRFGKCMNGKCACTPK [compound 4916],2.24,1.5,
GVIINVKCKISAQCLKPCKDAGMRFGKCMNGKCHCTPK [compound 1392],0.092,0.041,
GVIINVKCKISRQCLKPCKDAGMRFGKCMNGKCHC [compound 1396],6.99,3.94,
"CC[C@H](C)[C@@H]1NC(=O)[C@H](CCCCN)NC(=O)[C@@H](NC(=O)[C@H](CCCCN)NC(=O)[C@@H](NC(=O)[C@H](CC(N)=O)NC(=O)[C@@H](NC(=O)[C@@H](NC(=O)[C@@H](NC(=O)CN)C(C)C)[C@@H](C)CC)[C@@H](C)CC)C(C)C)CSSC[C@@H]2NC(=O)[C@H](CCCCN)NC(=O)CNC(=O)[C@H](Cc3ccccc3)NC(=O)[C@H](CCCNC(=N)N)NC(=O)[C@H](CCSC)NC(=O)CNC(=O)[C@H](C)NC(=O)[C@H](CCCCN)NC(=O)[C@H](CCCCN)NC(=O)[C@@H]3CSSC[C@@H](C(=O)N[C@H](C(=O)N4CCC[C@H]4C(=O)N[C@@H](CCCCN)C(=O)O)[C@@H](C)O)NC(=O)[C@H](Cc4c[nH]cn4)NC(=O)[C@H](CSSC[C@H](NC(=O)[C@H](CCC(N)=O)NC(=O)[C@H](CCCNC(=N)N)NC(=O)[C@H](CO)NC1=O)C(=O)N[C@@H](CC(C)C)C(=O)N[C@@H](CCC(=O)O)C(=O)N1CCC[C@H]1C(=O)N3)NC(=O)[C@H](CCCCN)NC(=O)CNC(=O)[C@H](CC(N)=O)NC(=O)[C@H](C)NC2=O [OSK1[Ala-29]] (H-GVIINVKCKISRQCLEPCKKAGMRFGKCANGKCHCTPK-OH; disulfide 8-28, 14-33, 18-35)",,,potency relative to cyclosporin A in blocking the cytokine response [2]: several orders of magnitude more potent; selectivity over Kv1.1 by IonWorks (in words) (human Kv1.1 (HEK293)): improved selectivity over Kv1.1; inhibition of the Kv1.3 current by IonWorks (in words) (human Kv1.3 (CHO)): potent inhibition of the Kv1.3 current
GVIINVKCKISRQCLKPCKDAGMRFGKCMNGKCHCGGG [compound 1274],3.64,2.64,
"IbTx: BKCa channel inhibitor peptide, Bachem (QFTDVDCSVSKECWSVCKDLFGVDRGKCMGKKCRCYQ; Definition of Artificial Sequence: Synthetic peptide) [reference compound]",,,thapsigargin-induced IFN-g production (in words) [1]: no significant activity; thapsigargin-induced IL-2 production (in words) [2]: no significant activity; thapsigargin-induced upregulation of CD40L on T cells (in words) [3]: no significant activity; thapsigargin-induced upregulation of the IL-2R on T cells (in words) [4]: no significant activity
B1,,,"IC50 values, whole blood cytokine response [2]: pM range; blockade of the whole blood cytokine response (IL-2, IFNg), in words [2]: potent blockade of the whole blood cytokine response"
B2,,,"IC50 values, whole blood cytokine response [2]: pM range; blockade of the whole blood cytokine response (IL-2, IFNg), in words [2]: potent blockade of the whole blood cytokine response"
B3,55.2,38.5,
